Earlier results in paper PMC1403760 (BMC Pharmacology, 2006).

System: HEK cells
Parameters: method as in PMID 12238779
Details: in these (HEK) cells; read-out: EC50 of forskolin

C=C[C@@]1(C)CC(=O)[C@]2(O)[C@@]3(C)[C@@H](O)CCC(C)(C)[C@@H]3[C@H](O)[C@H](OC(C)=O)[C@@]2(C)O1 [forskolin]
EC50: 10 µM
